Earlier results on two compounds are cited in patent US20200108015A1, “Sustained Release Nitric Oxide in Intestinal Tract” (SKLAR PHARMA LLC, priority 2018, published 2020).

Structures are written as SMILES. Like-named read-outs stand apart in the source and are kept apart here.

Consider `CC(=O)Oc1ccccc1C(=O)O` [aspirin], for which the half life entry (in the blood stream) is given as “about 30 minutes”. For `NC(=O)NO` [Hydroxyurea, hydroxyurea], for the setting “in vivo”, the half life entry is listed as “two”.
